The subject of assay [1] is CCl4-induced liver cirrhosis in a mouse model. In words: Serum biochemical testing (ALT, AST, TBil, MAO, ALB) in CCl4-induced liver cirrhosis model mice. The assay is classed as in vivo, C57BL/6N mice. To be noted: sorafenib 25 mg/kg intragastrically, once a day for 20 days. From the text: (§1) 70 SPF male C57BL/6N mice, 6-8 weeks old and 16-20 g body weight, were purchased from Beijing Huafukang Experimental Animal Technology Co., Ltd. (production license number: SOCK (Jing) 2019-0008). According to body weight, they were randomly divided into 7 groups (n=10): blank control group, model group, positive control group, Cu-1 low dose group, Cu-1 high dose group, Cu-2 low dose group, Cu-2 high dose group.
(§2) Except for the blank control group, liver cirrhosis model of mice in other groups was prepared by the treatment of carbon tetrachloride (CCl4)-induction method. The modeling protocoal was as follows: (1) Each mouse was intraperitoneally injected with 10% CCl4 (diluted with olive oil) at 7 μL/g body weight, twice a week for a total of 8 weeks; mice of the blank control group were injected intraperitoneally with the same amount of olive oil solvent. (2) from the 6th week, two mice were selected and killed 48 hours after the last injection every week. The appearance of the liver was observed. After the appearance was in line with the characteristics of cirrhosis (the 8th week), the liver tissue was fixed with formalin. HE staining and Masson staining were used to evaluate the model of cirrhosis. […]

Assay [2] has the same test system. In words: HE staining pathological examination of liver tissue in CCl4-induced liver cirrhosis model mice. The assay is classed as in vivo, C57BL/6N mice. Conditions: sorafenib 25 mg/kg intragastrically, 20 days, vs model control group.
Text: as §1, §2

The structures appear in SMILES notation.

In the case of `CNC(=O)c1cc(Oc2ccc(NC(=O)Nc3ccc(Cl)c(C(F)(F)F)c3)cc2)ccn1` [Sorafenib], the “serum ALT activity” value in assay [1] (model group 188.5±4.9, P<0.01) was 42.8±5.4 U/L. For the same molecule, the “serum AST activity” value in assay [1] (model group 192.0±11.3, P<0.05) stood at 165.5±11.6 U/L. In addition, the “HE staining: liver pathology” value in assay [2] is given as “significant reduction of liver damages”.

The values above are taken from patent publication US20230045685A1, “COPPER CLUSTERS, COMPOSITION, AND METHOD FOR TREATMENT OF LIVER CIRRHOSIS” (Wuhan Vast Conduct Science Foundation CO., LTD., priority 2020, published 2023).
